Laboratory results from US7714173B2, “Method for purifying terephthalaldehyde” (LG Chem, Ltd., priority 2006, dated 2010).
Converted amounts (≈) assume the structure as drawn. Values belong to the compound of their own block, whether it stands above or below them.

Key:
[1] = Solubility of terephthalaldehyde and major impurities in water and dimethylsulfoxide; settings: solvent H2O, measured at 25° C.
[2] = Stability of terephthalaldehyde in the dissolving solvent; format: physicochemical
Description: In a method for purifying terephthalaldehyde which comprises dissolving crude terephthalaldehyde in a solvent and then re-crystallizing the solution, using an anti-solvent, the present invention is characterized by using dimethylsulfoxide as the solvent. In the method for purifying terephthalaldehyde according to the present invention, usual alcohols or ethers may be used as a solvent dissolving terephthalaldehyde. However, dimethylsulfoxide according to the present invention has more excellent solubility of terephthalaldehyde and major impurities than those of the alcohols or the ethers, and may prepare terephthalaldehyde in a higher yield and purity.

[3] = 25 °C, organic solvent or mixture

Compound: O=Cc1ccc(O)cc1 [4-HBA, 4-hydroxybenzaldehyde]
solubility (physchem; [3]): 1000 mg/mL (≈ 8190 mM)
solubility (physchem; 25 °C, water): 2.5 mg/mL (≈ 20.5 mM)

Compound: Oc1ccc(O)cc1 [HQ, hydroquinone]
solubility (physchem; [3]): 1000 mg/mL (≈ 9080 mM)
solubility (physchem; 25 °C, water): 20 mg/mL (≈ 182 mM)

Compound: O=Cc1ccc(C=O)cc1 [terephthalaldehyde]
Stability in alcohols such as methanol ([2]; alcohols such as methanol as solvent): changed into a material such as acetal
Stability in dimethylsulfoxide ([2]; dimethylsulfoxide as solvent): such change is not occurred

Now from value to compound:

solubility (physchem; dimethylsulfoxide (DMSO), 25 °C, organic solvent or mixture): 1000 mg/mL (≈ 6660 mM)
solubility (physchem; water, 25 °C): < 1.67 mg/mL
Compound: O=Cc1ccc(C(=O)O)cc1 [4-CBA, 4-carboxybenzaldehyde]

Solubility in H2O [1]: <1.67 mg/mL
Compound: O=C(O)c1ccc(C(=O)O)cc1 [TPA, terphthalic acid]
